Results: PMC10377601, “Side Chain-Modified Benzothiazinone Derivatives with Anti-Mycobacterial Activity” (Biomedicines, 2023)
pIC50: −log10 of the molar value.

Columns and labels:
M. tuberculosis H37Rv = experiment: MIC determination by microplate alamar blue assay (MABA); type: cell-based; settings: Mycobacterium tuberculosis
[1] = biological target: T1, recombinant M. tuberculosis DprE1 enzyme (Mycobacterium tuberculosis, UniProt P9WJF1); experiment: DprE1 inhibition, Amplex Red/peroxidase coupled assay; type: biochemical; settings: Mtb DprE1
T1 construct: made in house; host or cells: E. coli
T1 sequence (P9WJF1 whole entry): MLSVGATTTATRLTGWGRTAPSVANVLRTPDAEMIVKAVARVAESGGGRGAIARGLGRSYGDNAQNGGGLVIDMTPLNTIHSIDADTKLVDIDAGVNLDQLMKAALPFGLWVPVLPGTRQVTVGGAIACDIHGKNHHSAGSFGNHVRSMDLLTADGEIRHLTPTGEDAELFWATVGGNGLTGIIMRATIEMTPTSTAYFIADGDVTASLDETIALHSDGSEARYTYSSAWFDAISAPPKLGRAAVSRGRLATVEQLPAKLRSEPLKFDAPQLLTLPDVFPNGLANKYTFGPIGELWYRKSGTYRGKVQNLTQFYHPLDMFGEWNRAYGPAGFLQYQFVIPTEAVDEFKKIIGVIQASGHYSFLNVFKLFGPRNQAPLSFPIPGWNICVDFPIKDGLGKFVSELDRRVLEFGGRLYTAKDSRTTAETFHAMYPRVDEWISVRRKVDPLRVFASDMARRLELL

in vitro = in vitro ADME; parameters: dose or concentration left out as unconfirmed; settings: human, microsomes, pH 7.4
Method: The compounds’ metabolic stability were determined in human liver microsomes. A solution of microsomes (0.2 mg/mL) containing the compounds […], NADPH (1 mM), and phosphate buffer (100 mM, pH 7.4) were prepared. Pre-incubation was conducted at 37 °C for 10 min. There was addition of 50 µL and 5 mM NADPH to initiate the reaction. At 5, 15, 30, 60, or 120 min, 30 µL of reaction solution was taken out and quenched with 300 µL internal standard tolbutamide (10 ng/mL) in cold CH3CN. The mixture was centrifuged at 6000 rpm for 15 min at 4 °C. Then, 100 μL supernatant was diluted with 100 uL ultrapure water (Millipore, ZMQS50F01). The solution was analyzed via LC/MS analysis.

In the case of `CN(Cc1cn(-c2ccc(Cl)c(Cl)c2)nn1)c1nc(=O)c2cc(C(F)(F)F)cc([N+](=O)[O-])c2s1` [Compound 26], the MIC (M. tuberculosis H37Rv; H37Rv, Table S1) was 4 ng/mL, the MIC (M. tuberculosis H37Rv; Mtb H37Rv, MABA) was 0.036 µM and the pIC50 [1] was 7.70.
`CN(Cc1coc(-c2cccc(F)c2)n1)c1nc(=O)c2cc(C(F)(F)F)cc([N+](=O)[O-])c2s1` [Compound 33] gave an MIC (M. tuberculosis H37Rv; H37Rv, Table S1) of 3 ng/mL, an MIC (M. tuberculosis H37Rv; Mtb H37Rv, MABA) of 0.021 µM and a pIC50 [1] of 7.13.
Compound `CN(Cc1cn(-c2ccc(F)cc2)nn1)c1nc(=O)c2cc(C(F)(F)F)cc([N+](=O)[O-])c2s1` [Compound 12] has an MIC (M. tuberculosis H37Rv; 168 h, Mtb H37Rv, MABA) of 0.012 µM and an MIC (M. tuberculosis H37Rv; Mtb H37Rv, MABA) of 0.012 µM.
Compound `CN(Cc1nnc(-c2cccc(F)c2)o1)c1nc(=O)c2cc(C(F)(F)F)cc([N+](=O)[O-])c2s1` [Compound 38] has an MIC (M. tuberculosis H37Rv; Mtb H37Rv, MABA) of 0.006 µM.
In the case of `CN(Cc1cn(-c2ccc(F)c(Cl)c2)nn1)c1nc(=O)c2cc(C(F)(F)F)cc([N+](=O)[O-])c2s1` [Compound 28], the MIC (M. tuberculosis H37Rv; H37Rv, Table S1) was 8 ng/mL, the MIC (M. tuberculosis H37Rv; Mtb H37Rv, MABA) was 0.029 µM and the pIC50 [1] was 7.39.
With `CN(Cc1cn(-c2ccc(F)cc2F)nn1)c1nc(=O)c2cc(C(F)(F)F)cc([N+](=O)[O-])c2s1` [Compound 25] the MIC (M. tuberculosis H37Rv; Mtb H37Rv, MABA) was 0.023 µM.
Work on `Cc1cccc(-n2cc(CN(C)c3nc(=O)c4cc(C(F)(F)F)cc([N+](=O)[O-])c4s3)nn2)c1` [Compound 19, 2-{methyl[1-(m-tolyl)-1H-1,2,3-triazol-4-yl](methyl)amino}-BTZ] yielded an MIC (M. tuberculosis H37Rv; 168 h, Mtb H37Rv, MABA) of 0.014 to 0.207 µM and an MIC (M. tuberculosis H37Rv; Mtb H37Rv, MABA) of 0.061 µM.
`CN(Cc1nnc(-c2ccccc2)s1)c1nc(=O)c2cc(C(F)(F)F)cc([N+](=O)[O-])c2s1` [Compound 40, 2-{methyl[(5-phenyl-1,3,4-thiadiazol-2-yl)methyl]amino}-BTZ] showed an MIC (M. tuberculosis H37Rv; Mtb H37Rv, MABA) of 0.033 µM, a CLint scaled (in vitro) of 50.7 mL/min/kg and a half-life (in vitro) of 34.3 min.
`CN(Cc1csc(-c2ccc(F)cc2)n1)c1nc(=O)c2cc(C(F)(F)F)cc([N+](=O)[O-])c2s1` [Compound 36, 2-{[(2-(4-fluorophenyl)thiazol-4-yl)methyl](methyl)amino}-BTZ] showed an MIC (M. tuberculosis H37Rv; 168 h, Mtb H37Rv, MABA) of 0.034 µM, an MIC (M. tuberculosis H37Rv; Mtb H37Rv, MABA) of 0.034 µM and a CLint scaled (in vitro) of 25.5 mL/min/kg. For the same compound, the half-life (in vitro) was 68.2 min.
Compound `CN(Cc1nnc(-c2ccc(F)cc2)s1)c1nc(=O)c2cc(C(F)(F)F)cc([N+](=O)[O-])c2s1` [Compound 42] has an MIC (M. tuberculosis H37Rv; Mtb H37Rv, MABA) of 0.026 µM.
`CN(Cc1cn(-c2cccc(I)c2)nn1)c1nc(=O)c2cc(C(F)(F)F)cc([N+](=O)[O-])c2s1` [Compound 17] gave an MIC (M. tuberculosis H37Rv; 168 h, Mtb H37Rv, MABA) of 0.014 to 0.207 µM and an MIC (M. tuberculosis H37Rv; Mtb H37Rv, MABA) of 0.133 µM.
In the case of `CN(Cc1cn(-c2ccc3ccccc3c2)nn1)c1nc(=O)c2cc(C(F)(F)F)cc([N+](=O)[O-])c2s1` [Compound 8], the MIC (M. tuberculosis H37Rv; Mtb H37Rv, MABA) was 0.057 µM.
For `CN(Cc1nnc(-c2ccc(F)cc2)o1)c1nc(=O)c2cc(C(F)(F)F)cc([N+](=O)[O-])c2s1` [Compound 39], the MIC (M. tuberculosis H37Rv; Mtb H37Rv, MABA) was 0.006 µM.
In the case of `CN(Cc1cn(C2CCCCC2)nn1)c1nc(=O)c2cc(C(F)(F)F)cc([N+](=O)[O-])c2s1` [Compound 1, 2-{[(1-cyclohexyl-1H-1,2,3-triazol-4-yl)methyl](methyl)amino}-BTZ], the MIC (M. tuberculosis H37Rv; 168 h, Mtb H37Rv, MABA) was 0.032 µM and the MIC (M. tuberculosis H37Rv; Mtb H37Rv, MABA) was 0.032 µM.
In the case of `CN(Cc1cn(-c2c(F)cccc2F)nn1)c1nc(=O)c2cc(C(F)(F)F)cc([N+](=O)[O-])c2s1` [Compound 24], the MIC (M. tuberculosis H37Rv; Mtb H37Rv, MABA) was 0.259 µM and the pIC50 [1] was 5.14.
Compound `CN(Cc1cn(-c2cccc(Cl)c2)nn1)c1nc(=O)c2cc(C(F)(F)F)cc([N+](=O)[O-])c2s1` [Compound 15] has an MIC (M. tuberculosis H37Rv; 168 h, Mtb H37Rv, MABA) of 0.014 to 0.207 µM and an MIC (M. tuberculosis H37Rv; Mtb H37Rv, MABA) of 0.014 µM.
With `CN(Cc1coc(-c2ccccc2)n1)c1nc(=O)c2cc(C(F)(F)F)cc([N+](=O)[O-])c2s1` [Compound 31, 2-{methyl[(2-phenyloxazol-4-yl)methyl]amino}-BTZ] the MIC (M. tuberculosis H37Rv; H37Rv, Table S1) was 13 ng/mL, the MIC (M. tuberculosis H37Rv; Mtb H37Rv, MABA) was 0.006 µM and the pIC50 [1] was 6.66. It also gave a CLint scaled (in vitro) of 51.7 mL/min/kg and a half-life (in vitro) of 33.6 min.
Compound `CN(Cc1cn(-c2ccccc2F)nn1)c1nc(=O)c2cc(C(F)(F)F)cc([N+](=O)[O-])c2s1` [Compound 14] has an MIC (M. tuberculosis H37Rv; 168 h, Mtb H37Rv, MABA) of 0.27 µM and an MIC (M. tuberculosis H37Rv; Mtb H37Rv, MABA) of 0.27 µM.
`CN(Cc1cn(-c2cccnc2)nn1)c1nc(=O)c2cc(C(F)(F)F)cc([N+](=O)[O-])c2s1` [Compound 6] gave an MIC (M. tuberculosis H37Rv; Mtb H37Rv, MABA) of 0.17 µM.
Work on `CN(Cc1csc(-c2cccc(F)c2)n1)c1nc(=O)c2cc(C(F)(F)F)cc([N+](=O)[O-])c2s1` [Compound 35] yielded an MIC (M. tuberculosis H37Rv; 168 h, Mtb H37Rv, MABA) of 0.032 µM, an MIC (M. tuberculosis H37Rv; H37Rv, Table S1) of 7 ng/mL and an MIC (M. tuberculosis H37Rv; Mtb H37Rv, MABA) of 0.032 µM. It also gave a pIC50 [1] of 7.19.
With `CN(Cc1coc(-c2ccc(F)cc2)n1)c1nc(=O)c2cc(C(F)(F)F)cc([N+](=O)[O-])c2s1` [Compound 32] the MIC (M. tuberculosis H37Rv; H37Rv, Table S1) was 16 ng/mL, the MIC (M. tuberculosis H37Rv; Mtb H37Rv, MABA) was 0.006 µM and the pIC50 [1] was 6.12.
With `CN(Cc1cn(-c2cc(Cl)cc(Cl)c2)nn1)c1nc(=O)c2cc(C(F)(F)F)cc([N+](=O)[O-])c2s1` [Compound 30] the MIC (M. tuberculosis H37Rv; H37Rv, Table S1) was 6 ng/mL, the MIC (M. tuberculosis H37Rv; Mtb H37Rv, MABA) was 0.047 µM and the pIC50 [1] was 7.05.
In the case of `CN(Cc1nnc(-c2cccc(F)c2)s1)c1nc(=O)c2cc(C(F)(F)F)cc([N+](=O)[O-])c2s1` [Compound 41], the MIC (M. tuberculosis H37Rv; Mtb H37Rv, MABA) was 0.024 µM.
For `COc1cccc(-n2cc(CN(C)c3nc(=O)c4cc(C(F)(F)F)cc([N+](=O)[O-])c4s3)nn2)c1` [Compound 18], the MIC (M. tuberculosis H37Rv; 168 h, Mtb H37Rv, MABA) was 0.014 to 0.207 µM and the MIC (M. tuberculosis H37Rv; Mtb H37Rv, MABA) was 0.12 µM.
For `CN(Cc1cn(-c2cccc3ccccc23)nn1)c1nc(=O)c2cc(C(F)(F)F)cc([N+](=O)[O-])c2s1` [Compound 9], the MIC (M. tuberculosis H37Rv; Mtb H37Rv, MABA) was 0.217 µM.
Work on `CN(Cc1cn(-c2ccc(Cl)cc2Cl)nn1)c1nc(=O)c2cc(C(F)(F)F)cc([N+](=O)[O-])c2s1` [Compound 29] yielded an MIC (M. tuberculosis H37Rv; H37Rv, Table S1) of 4 ng/mL, an MIC (M. tuberculosis H37Rv; Mtb H37Rv, MABA) of 0.023 µM and a pIC50 [1] of 7.62.
`CN(Cc1cn(-c2cc(F)cc(F)c2)nn1)c1nc(=O)c2cc(C(F)(F)F)cc([N+](=O)[O-])c2s1` [Compound 23] gave an MIC (M. tuberculosis H37Rv; 168 h, Mtb H37Rv, MABA) of under 0.023 µM and an MIC (M. tuberculosis H37Rv; Mtb H37Rv, MABA) of 0.016 µM.
Compound `CN(Cc1csc(-c2ccccc2)n1)c1nc(=O)c2cc(C(F)(F)F)cc([N+](=O)[O-])c2s1` [Compound 34, 2-{methyl[(2-phenylthiazol-4-yl)methyl]amino}-BTZ] has an MIC (M. tuberculosis H37Rv; 168 h, Mtb H37Rv, MABA) of 0.015 µM, an MIC (M. tuberculosis H37Rv; H37Rv, Table S1) of 3 ng/mL and an MIC (M. tuberculosis H37Rv; Mtb H37Rv, MABA) of 0.015 µM. It also gave a pIC50 [1] of 7.16, a CLint scaled (in vitro) of 71.6 mL/min/kg and a half-life (in vitro) of 24.3 min.
In the case of `CN(Cc1cn(-c2ccc(F)c(Br)c2)nn1)c1nc(=O)c2cc(C(F)(F)F)cc([N+](=O)[O-])c2s1` [Compound 27], the MIC (M. tuberculosis H37Rv; H37Rv, Table S1) was 129 ng/mL, the MIC (M. tuberculosis H37Rv; Mtb H37Rv, MABA) was 0.055 µM and the pIC50 [1] was 5.14.
In the case of `CN(Cc1cn(-c2cccc(C(F)(F)F)c2)nn1)c1nc(=O)c2cc(C(F)(F)F)cc([N+](=O)[O-])c2s1` [Compound 20], the MIC (M. tuberculosis H37Rv; 168 h, Mtb H37Rv, MABA) was 0.014 to 0.207 µM and the MIC (M. tuberculosis H37Rv; Mtb H37Rv, MABA) was 0.04 µM.
With `CN(Cc1cn(-c2ccc(F)c(F)c2)nn1)c1nc(=O)c2cc(C(F)(F)F)cc([N+](=O)[O-])c2s1` [Compound 22] the MIC (M. tuberculosis H37Rv; 168 h, Mtb H37Rv, MABA) was under 0.023 µM and the MIC (M. tuberculosis H37Rv; Mtb H37Rv, MABA) was 0.014 µM.
For `CN(Cc1cn(-c2ccc(-c3ccccc3)cc2)nn1)c1nc(=O)c2cc(C(F)(F)F)cc([N+](=O)[O-])c2s1` [Compound 7], the MIC (M. tuberculosis H37Rv; Mtb H37Rv, MABA) was 0.44 µM.
With `CN(Cc1cn(-c2cccc(Br)c2)nn1)c1nc(=O)c2cc(C(F)(F)F)cc([N+](=O)[O-])c2s1` [Compound 16] the MIC (M. tuberculosis H37Rv; 168 h, Mtb H37Rv, MABA) was 0.014 to 0.207 µM and the MIC (M. tuberculosis H37Rv; Mtb H37Rv, MABA) was 0.055 µM.
Work on `CN(Cc1cn(-c2cccc(F)c2)nn1)c1nc(=O)c2cc(C(F)(F)F)cc([N+](=O)[O-])c2s1` [Compound 13] yielded an MIC (M. tuberculosis H37Rv; 168 h, Mtb H37Rv, MABA) of 0.008 µM and an MIC (M. tuberculosis H37Rv; Mtb H37Rv, MABA) of 0.008 µM.
Work on `CN(Cc1cn(-c2cccc(C#N)c2)nn1)c1nc(=O)c2cc(C(F)(F)F)cc([N+](=O)[O-])c2s1` [Compound 21, 3-{4-[(methyl(8-nitro-4-oxo-6-(trifluoromethyl)-4H-benzo[e][1,3]thiazin-2-yl)amino)methyl)-1H-1,2,3-triazol-1-yl)benzonitrile] yielded an MIC (M. tuberculosis H37Rv; 168 h, Mtb H37Rv, MABA) of 0.014 to 0.207 µM and an MIC (M. tuberculosis H37Rv; Mtb H37Rv, MABA) of 0.207 µM.
`CN(Cc1cn(-c2ccncc2)nn1)c1nc(=O)c2cc(C(F)(F)F)cc([N+](=O)[O-])c2s1` [Compound 5] showed an MIC (M. tuberculosis H37Rv; Mtb H37Rv, MABA) of 0.047 µM.
